From patent publication US20250161312A1, “A METHOD FOR THE TREATMENT OF CHEMOTHERAPEUTIC DRUG-INDUCED NEPHROTOXICITY” (INSTITUT NATIONAL DE LA SANTÉ ET DE LA RECHERCHE MÉDICALE, priority 2022, published 2025) come the findings set out here.

One experiment concerns RPTEC/hTERT cells. Nature of the experiment: Caspase 3/7 activity in RPTEC cells. As to conditions: cisplatin 50 μM, 48 hours. In kind it is cell-based, human. Here is the method: (§1) Cells were cultured in DMEM/F12 medium (Dulbecco's modified Eagle's medium and Ham's F12 medium, Thermo Fisher) supplemented with 1% penicillin/streptomycin, 5 pmol/L triiodo-L-thyronine, 10 ng/ml recombinant human epidermal growth factor, 3.5 μg/mL ascorbic acid, 5.0 μg/mL human transferrin, 5.0 μg/mL insulin, 25 ng/mL prostaglandin E1, 25 ng/ml hydrocortisone, 8.65 ng/mL sodium selenite, 0.1 mg/mL G418 and 1.2 g/L sodium bicarbonate (Sigma). Lewis lung carcinoma mouse LLC1 cells were cultured in DMEM glutamax (Thermo Fisher) containing 10% fetal calf serum and 1% penicillin/streptomycin. Cells were cultured at 37° C. in a humidified atmosphere of 5% CO2.
(§2) Apoptosis was assessed in RPTEC/hTERT and LLC1 cell lysates using the caspase-Glo 3/7 assay (Promega) according to manufacturer's recommendations.

Experiment [1] has as its system RPTEC/hTERT1 cells. Kind of experiment: Quantitative RT-PCR of Nrf2 and HO1 in RPTEC/hTERT1 cells. In kind it is cell-based, human. As to conditions: in vitro. The method, then: FIG. 6. KW6002 alleviates the cisplatin-induced nephrotoxicity associated with apoptosis, lipid metabolism, and oxidative stress. (A) Tail moment assessed by comet assay; 50 cells/condition were analyzed. (B and C) KW6002 attenuates cisplatin-induced renal lipid accumulation, assessed by Red Oil staining. […] Results are the mean±SEM (n=6-9 mice/group). (F-H) KW6002 attenuated cisplatin-induced oxidative stress in RPTEC/hTERT1 cells. (F and G) Gene expression of Nrf2 (F) and HO1 (G). […] Results are the mean±SEM (n=3 independent experiments).
Total RNA from kidney samples was extracted with phenol/chloroform and subsequently precipitated in isopropanol as described previously (71). Total RNA from cultured renal cells was extracted using RNeasy Mini kit (Qiagen) following manufacturer's recommendations.
Reverse transcription was performed on 1 μg of RNA using high-capacity cDNA reverse transcription kit (Thermo Fisher), according the manufacturer's recommendation. Real time PCR was performed on a StepOne device using Taqman Gene Expression Master Mix (Thermo Fisher), following manufacturer's recommendations. […]

Experiment [2] has as its system RPTEC/hTERT1 cells. Nature of the experiment: Cell efflux (EFLUXX-ID) in RPTEC/hTERT1 cells. The format is cell-based, human. As to conditions: cisplatin-treated cells, flow cytometry, FIG. 4C. Here is the method: FIG. 4. […] (A) Platinum quantification (n=12-20/group) and relative expression of influx transporters (CTR1 and OCT2) and efflux transporters (ATP7B, MATE1, MATE2 and ABCC2; n=10-12/group) in kidney. (B) Platinum quantification (n=12-20/group) and relative expression of influx transporters (CTR1) and efflux transporters (ATP7B, MATE1, and ABCC2; n=5-6/group) in tumors. […] Results are the mean±SEM (n=3 independent experiments)
The basic cell efflux function was assessed using an EFLUXX-ID Green Multidrug Resistance Assay Kit (ENZO Life Sciences). Briefly, 2.5×10^5 cells/condition were collected, washed with PBS, and incubated with the EFLUXX-ID Green Detection Reagent for 30 minutes at 37° C., and then efflux was measured immediately by flow cytometry (CytoFLEX LX, Beckman Coulter). All experiments were performed in triplicate, with the measurement of 10,000 individual cells. Data were analyzed using Kaluza Analysis Software (Beckman Coulter).
(In general: In flow cytometry, cells or beads pass a laser one at a time.)

A further experiment deals with LLC1 cells. Kind of experiment: Caspase 3/7 activity in LLC1 cells. In kind it is cell-based, mouse. The method, then:
FIG. 7. […] Caspase 3/-7 activity (n=3 independent experiments) (A) and the number of γH2AX nuclear foci (n=36-63 nuclei/group) (B) were determined. […] Results are expressed as the mean±SEM (n=3 independent experiments). (E) Tail moment was assessed by comet assay. A total of 50 cells per condition were analyzed. *** P<0.001; 1-way ANOVA followed by Tukey's post hoc test. […] (I) KW6002 increased yH2AX expression in tumors from mice of the LLC1 syngeneic model. Quantification of nuclear yH2AX expression.
as §1, §2

The structures appear in SMILES notation.

In the case of `CCn1c(=O)c2c(nc(/C=C/c3ccc(OC)c(OC)c3)n2C)n(CC)c1=O` [KW-6002, 8-[(E)-2-(3,4-dimethoxyphenyl)vinyl]-1,3-diethyl-7-methyl-3,7-dihydro-1H-purine-2,6-dione], the cisplatin-induced apoptosis result in the experiment on RPTEC/hTERT cells is recorded as “inhibited cisplatin-induced apoptosis”; in the experiment with RPTEC/hTERT cells (listed as KW6002), “inhibiting cisplatin-induced apoptosis”. For the same compound, the “cisplatin-induced increase in expression of Nrf2” value in the experiment on RPTEC/hTERT1 cells [1] (FIG. 6F) is “normalized”. Further, in the experiment on RPTEC/hTERT1 cells [1] (FIG. 6G), the “cisplatin-induced increase in expression of HO1” value is “normalized”. Further, in the experiment on RPTEC/hTERT1 cells [2], the efflux result is reported as “strongly enhanced”. Also, in the experiment with LLC1 cells (2 μM cisplatin, 10 Nm KW6002, 24 hours, FIG. 7A), the “apoptosis: caspase 3/-7 activity” value is “even potentiated the efficacy of cisplatin”. In addition, the “LLC1 sensitivity to cisplatin, including apoptosis and/or DNA damage” value with LLC1 cells (in vitro, data not shown) is reported as “likely increases LLC1 sensitivity to cisplatin”.
